Values of other authors in paper PMC3127977, “No relevant cardiac, pharmacokinetic or safety interactions between roflumilast and inhaled formoterol in healthy subjects: an open-label, randomised, actively controlled study” (BMC Clinical Pharmacology, 2011).
Like-named read-outs stand apart in the source and are kept apart here.

Settings: cited from earlier work
[1] = CYP3A4 inhibitors co-administered with roflumilast

## CCn1cc(C(=O)O)c(=O)c2cc(F)c(N3CCNCC3)nc21 [enoxacin]
CYP1A2 or dual CYP3A4/1A2 inhibitor co-administered with roflumilast
  increase of tPDE4i: 25%

## CC[C@H]1OC(=O)[C@H](C)[C@@H](O[C@H]2C[C@@](C)(OC)[C@@H](O)[C@H](C)O2)[C@H](C)[C@@H](O[C@@H]2O[C@H](C)C[C@H](N(C)C)[C@H]2O)[C@](C)(O)C[C@@H](C)C(=O)[C@H](C)[C@@H](O)[C@]1(C)O [erythromycin]
[1]
  increase of tPDE4i: 8-9%

## CC(=O)N1CCN(c2ccc(OCC3COC(Cn4ccnc4)(c4ccc(Cl)cc4Cl)O3)cc2)CC1 (stereo not drawn) [ketoconazole]
[1]
  increase of tPDE4i: 8-9%
